In patent US20260014232A1, “Pharmaceutical Composition of GLP-1 and GIP Receptor Dual Agonist and Use Thereof” (Jiangsu Hengrui Pharmaceuticals Co., Ltd., priority 2021, published 2026):
Starred links: 1 amine or outer side, 2 acyl side, 3 side chain; linkers in the order of their positions; H or OH if unused. Non-standard residues stand in square brackets, D forms with d. Residues, ends and D or L forms follow the SMILES beside them. Groups on a side chain read outwards from the residue. *: point of attachment. C20 diacid = O=C(O)CCCCCCCCCCCCCCCCCCC(=O)*; γGlu = O=C(O)[C@H](CCC(=O)[*:2])N[*:1]; AEEA = NCCOCCOCC(=O)O; Aib = CC(C)(N)C(=O)O

Key:
[1] = Viscera/brain ratio for fat mass in diet-induced-obesity mice; format: in vivo, C57BL/6 mice; conditions: DIO mice; for viscera/brain ratio for fat mass, Epididymal fat / viscera/brain ratio for fat mass, Inguinal fat / viscera/brain ratio for fat mass, Mesenteric fat / viscera/brain ratio for fat mass, Perirenal fat / viscera/brain ratio for fat mass, Scapular fat / viscera/brain ratio for fat mass, Subcutaneous fat: X ± s
Experimental: (§1) High-fat food-induced-obesity male C57BL/6 mice (weighing 35-55 g, aged 10-12 weeks, purchased from Shanghai Jiesijie Laboratory Animal Co., Ltd.) were tested. […] According to the experimental design, the body weight of each mouse was measured and recorded on day 0, day 3, day 6, and so on to day 27, the average body weight of each group of mice was calculated, and body weight change curves were plotted by taking the body weight on the first day as the standard. At the end, the fat and other visceral organs of each part of the mice were taken out and weighed, and the viscera/brain ratio for fat in each part of each mouse was calculated. The effect of the drug on the fat was determined by comparing the change in the viscera/brain ratio for fat of different parts of each group of mice.

[2] = Food intake of diet-induced-obesity (DIO) mice; format: in vivo, C57BL/6 mice
Experimental: as §1
The food intake of mice in each group was measured daily during the experiment.

Compound: CC[C@H](C)[C@H](NC(=O)[C@H](CCCCN)NC(=O)[C@H](CCC(=O)O)NC(=O)[C@H](CCCCNC(=O)COCCOCCNC(=O)COCCOCCNC(=O)CC[C@H](NC(=O)CCCCCCCCCCCCCCCCCCC(=O)O)C(=O)O)NC(=O)[C@H](Cc1ccc(O)cc1)NC(=O)[C@@H](NC(=O)[C@H](CO)NC(=O)[C@H](Cc1ccc(O)cc1)NC(=O)[C@H](CC(=O)O)NC(=O)[C@H](CO)NC(=O)[C@@H](NC(=O)[C@H](Cc1ccccc1)NC(=O)[C@@H](NC(=O)CNC(=O)[C@H](CCC(=O)O)NC(=O)C(C)(C)NC(=O)[C@@H](N)Cc1ccc(O)cc1)[C@@H](C)O)[C@@H](C)O)[C@@H](C)CC)C(=O)N[C@@H](C)C(=O)N[C@@H](C)C(=O)N[C@@H](CCC(N)=O)C(=O)N[C@@H](CCC(=O)O)C(=O)N[C@@H](Cc1ccccc1)C(=O)N[C@H](C(=O)N[C@@H](CC(N)=O)C(=O)N[C@@H](Cc1c[nH]c2ccccc12)C(=O)N[C@@H](CC(C)C)C(=O)N[C@@H](CC(C)C)C(=O)N[C@@H](C)C(=O)NCC(=O)NCC(=O)N1CCC[C@H]1C(=O)N[C@@H](CO)C(=O)N[C@@H](CO)C(=O)NCC(=O)N[C@@H](C)C(=O)N1CCC[C@H]1C(=O)N1CCC[C@H]1C(=O)N1CCC[C@H]1C(=O)N[C@@H](CO)C(N)=O)C(C)C [Compound 18#] (H-Y[Aib]EGTFTSDYSIYK([AEEA-AEEA-γGlu-C20 diacid])EKIAAQEFVNWLLAGGPSSGAPPPS-NH2)
- viscera/brain ratio for fat mass, Epididymal fat ([1]; 3 nmol/kg): 254.6 ± 113.4 %
- viscera/brain ratio for fat mass, Inguinal fat ([1]; 3 nmol/kg): 281.5 ± 140.1 %
- viscera/brain ratio for fat mass, Mesenteric fat ([1]; 3 nmol/kg): 84.8 ± 41.3 %
- viscera/brain ratio for fat mass, Perirenal fat ([1]; 3 nmol/kg): 159.2 ± 87.6 %
- viscera/brain ratio for fat mass, Scapular fat ([1]; 3 nmol/kg): 48 ± 15.3%
- viscera/brain ratio for fat mass, Subcutaneous fat ([1]; 3 nmol/kg): 129 ± 62 %
- viscera/brain ratio for fat mass, Epididymal fat ([1]; 10 nmol/kg): 211.7 ± 80.7 %
- viscera/brain ratio for fat mass, Inguinal fat ([1]; 10 nmol/kg): 194.4 ± 86.2 %
- viscera/brain ratio for fat mass, Mesenteric fat ([1]; 10 nmol/kg): 53.3 ± 14.6 %
- viscera/brain ratio for fat mass, Perirenal fat ([1]; 10 nmol/kg): 109.4 ± 57.1 %
- viscera/brain ratio for fat mass, Scapular fat ([1]; 10 nmol/kg): 42.5 ± 17%
- viscera/brain ratio for fat mass, Subcutaneous fat ([1]; 10 nmol/kg): 122 ± 73.2 %
- viscera/brain ratio for fat mass, Epididymal fat ([1]; 100 nmol/kg): 102.9 ± 32.2 %
- viscera/brain ratio for fat mass, Inguinal fat ([1]; 100 nmol/kg): 92 ± 34.5 %
- viscera/brain ratio for fat mass, Mesenteric fat ([1]; 100 nmol/kg): 27.4 ± 11.1 %
- viscera/brain ratio for fat mass, Perirenal fat ([1]; 100 nmol/kg): 46.6 ± 18.2 %
- viscera/brain ratio for fat mass, Scapular fat ([1]; 100 nmol/kg): 32.3 ± 7%
- viscera/brain ratio for fat mass, Subcutaneous fat ([1]; 100 nmol/kg): 57.1 ± 21.2 %
- content of fat of each part (except scapular fat) relative to placebo ([1]; all dose test groups): significantly reduced
- cumulative food intake 28 days after the administration ([2]; 3 nmol/kg): 58.2 g
- cumulative food intake within 5 days after the administration ([2]; 3 nmol/kg): 7.2 g
- daily food intake ([2]; 3 nmol/kg, day 1, listed as 18 #): 0.6 g
- daily food intake ([2]; 3 nmol/kg, day 1, listed as 18#): 0.6 g
- daily food intake ([2]; 3 nmol/kg, day 2): 1.3 g
- daily food intake ([2]; 3 nmol/kg, day 3): 2 g
- daily food intake ([2]; 3 nmol/kg, day 4): 1.1 g
- daily food intake ([2]; 3 nmol/kg, day 5): 2.2 g
- daily food intake ([2]; 3 nmol/kg, day 6): 2.1 g
- daily food intake ([2]; 3 nmol/kg, day 7): 1.1 g
- daily food intake ([2]; 3 nmol/kg, day 8): 1.6 g
- daily food intake ([2]; 3 nmol/kg, day 9): 2.5 g
- daily food intake ([2]; 3 nmol/kg, day 10): 1.3 g
- daily food intake ([2]; 3 nmol/kg, day 11): 2 g
- daily food intake ([2]; 3 nmol/kg, day 12): 3 g
- daily food intake ([2]; 3 nmol/kg, day 13): 1.8 g
- daily food intake ([2]; 3 nmol/kg, day 14): 2.3 g
- daily food intake ([2]; 3 nmol/kg, day 15): 2.9 g
- daily food intake ([2]; 3 nmol/kg, day 16): 1.5 g
- daily food intake ([2]; 3 nmol/kg, day 17): 2.2 g
- daily food intake ([2]; 3 nmol/kg, day 18): 2.7 g
- daily food intake ([2]; 3 nmol/kg, day 19): 1.7 g
- daily food intake ([2]; 3 nmol/kg, day 20): 2.2 g
- daily food intake ([2]; 3 nmol/kg, day 21): 3.4 g
- daily food intake ([2]; 3 nmol/kg, day 22): 1.8 g
- daily food intake ([2]; 3 nmol/kg, day 23): 2.6 g
- daily food intake ([2]; 3 nmol/kg, day 24): 2.9 g
- daily food intake ([2]; 3 nmol/kg, day 25): 1.8 g
- daily food intake ([2]; 3 nmol/kg, day 26): 2.5 g
- daily food intake ([2]; 3 nmol/kg, day 27): 3.9 g
- daily food intake ([2]; 3 nmol/kg, day 28): 1.3 g
- cumulative food intake 28 days after the administration ([2]; 10 nmol/kg): 46.8 g
- cumulative food intake within 5 days after the administration ([2]; 10 nmol/kg): 3.9 g
- daily food intake ([2]; 10 nmol/kg, day 1, listed as 18 #): 0.3 g
- daily food intake ([2]; 10 nmol/kg, day 1, listed as 18#): 0.3 g
- daily food intake ([2]; 10 nmol/kg, day 2): 0.6 g
- daily food intake ([2]; 10 nmol/kg, day 3): 1.1 g
- daily food intake ([2]; 10 nmol/kg, day 4): 0.7 g
- daily food intake ([2]; 10 nmol/kg, day 5): 1.1 g
- daily food intake ([2]; 10 nmol/kg, day 6): 1.5 g
- daily food intake ([2]; 10 nmol/kg, day 7): 0.8 g
- daily food intake ([2]; 10 nmol/kg, day 8): 1.1 g
- daily food intake ([2]; 10 nmol/kg, day 9): 2 g
- daily food intake ([2]; 10 nmol/kg, day 10): 0.9 g
- daily food intake ([2]; 10 nmol/kg, day 11): 1.8 g
- daily food intake ([2]; 10 nmol/kg, day 12): 2.4 g
- daily food intake ([2]; 10 nmol/kg, day 13): 0.9 g
- daily food intake ([2]; 10 nmol/kg, day 14): 1.7 g
- daily food intake ([2]; 10 nmol/kg, day 15): 3 g
- daily food intake ([2]; 10 nmol/kg, day 16): 1.2 g
- daily food intake ([2]; 10 nmol/kg, day 17): 2.1 g
- daily food intake ([2]; 10 nmol/kg, day 18): 2.9 g
